What all share (format): biochemical
In test [1] the target is platelet derived growth factor-receptor B (PDGFRB) (Homo sapiens, UniProt P09619). Put plainly: cell-free recombinant human kinase assay.
Test [2] deals with platelet derived growth factor-receptor A (PDGFRA) (Homo sapiens, UniProt P16234). Put plainly: cell-free recombinant human kinase assay.
The next test has as its target KIT (Homo sapiens, UniProt P10721). Put plainly: cell-free recombinant human kinase assay (also KINOMEscan binding).

A word on the IC50: it is the concentration that gives 50% inhibition.

Chain of KIT (P10721 26-976): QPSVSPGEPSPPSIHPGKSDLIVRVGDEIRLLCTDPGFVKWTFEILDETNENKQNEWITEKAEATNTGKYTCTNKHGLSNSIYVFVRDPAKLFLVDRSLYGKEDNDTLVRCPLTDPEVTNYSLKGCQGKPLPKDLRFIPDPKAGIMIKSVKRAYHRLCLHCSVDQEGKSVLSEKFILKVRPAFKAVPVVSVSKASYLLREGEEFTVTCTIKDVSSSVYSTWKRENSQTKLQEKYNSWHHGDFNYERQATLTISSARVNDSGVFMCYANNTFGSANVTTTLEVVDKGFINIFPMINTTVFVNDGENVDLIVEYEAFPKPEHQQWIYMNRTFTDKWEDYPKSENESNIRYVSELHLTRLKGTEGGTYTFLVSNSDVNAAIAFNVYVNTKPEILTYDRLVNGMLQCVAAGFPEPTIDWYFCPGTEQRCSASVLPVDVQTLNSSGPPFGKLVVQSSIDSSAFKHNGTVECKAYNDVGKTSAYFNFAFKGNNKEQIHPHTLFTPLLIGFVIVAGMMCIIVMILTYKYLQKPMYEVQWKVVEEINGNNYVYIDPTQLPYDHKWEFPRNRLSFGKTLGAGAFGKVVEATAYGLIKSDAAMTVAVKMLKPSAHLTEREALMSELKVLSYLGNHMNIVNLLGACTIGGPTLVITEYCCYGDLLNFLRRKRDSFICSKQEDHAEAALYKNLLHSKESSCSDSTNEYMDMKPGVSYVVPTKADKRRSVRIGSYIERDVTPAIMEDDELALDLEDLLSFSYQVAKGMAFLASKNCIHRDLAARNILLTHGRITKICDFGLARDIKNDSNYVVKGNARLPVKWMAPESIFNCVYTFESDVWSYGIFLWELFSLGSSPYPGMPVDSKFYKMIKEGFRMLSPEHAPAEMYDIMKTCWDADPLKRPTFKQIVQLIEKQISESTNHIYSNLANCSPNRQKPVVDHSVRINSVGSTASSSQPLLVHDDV
Chain of platelet derived growth factor-receptor A (PDGFRA) (P16234 24-1089): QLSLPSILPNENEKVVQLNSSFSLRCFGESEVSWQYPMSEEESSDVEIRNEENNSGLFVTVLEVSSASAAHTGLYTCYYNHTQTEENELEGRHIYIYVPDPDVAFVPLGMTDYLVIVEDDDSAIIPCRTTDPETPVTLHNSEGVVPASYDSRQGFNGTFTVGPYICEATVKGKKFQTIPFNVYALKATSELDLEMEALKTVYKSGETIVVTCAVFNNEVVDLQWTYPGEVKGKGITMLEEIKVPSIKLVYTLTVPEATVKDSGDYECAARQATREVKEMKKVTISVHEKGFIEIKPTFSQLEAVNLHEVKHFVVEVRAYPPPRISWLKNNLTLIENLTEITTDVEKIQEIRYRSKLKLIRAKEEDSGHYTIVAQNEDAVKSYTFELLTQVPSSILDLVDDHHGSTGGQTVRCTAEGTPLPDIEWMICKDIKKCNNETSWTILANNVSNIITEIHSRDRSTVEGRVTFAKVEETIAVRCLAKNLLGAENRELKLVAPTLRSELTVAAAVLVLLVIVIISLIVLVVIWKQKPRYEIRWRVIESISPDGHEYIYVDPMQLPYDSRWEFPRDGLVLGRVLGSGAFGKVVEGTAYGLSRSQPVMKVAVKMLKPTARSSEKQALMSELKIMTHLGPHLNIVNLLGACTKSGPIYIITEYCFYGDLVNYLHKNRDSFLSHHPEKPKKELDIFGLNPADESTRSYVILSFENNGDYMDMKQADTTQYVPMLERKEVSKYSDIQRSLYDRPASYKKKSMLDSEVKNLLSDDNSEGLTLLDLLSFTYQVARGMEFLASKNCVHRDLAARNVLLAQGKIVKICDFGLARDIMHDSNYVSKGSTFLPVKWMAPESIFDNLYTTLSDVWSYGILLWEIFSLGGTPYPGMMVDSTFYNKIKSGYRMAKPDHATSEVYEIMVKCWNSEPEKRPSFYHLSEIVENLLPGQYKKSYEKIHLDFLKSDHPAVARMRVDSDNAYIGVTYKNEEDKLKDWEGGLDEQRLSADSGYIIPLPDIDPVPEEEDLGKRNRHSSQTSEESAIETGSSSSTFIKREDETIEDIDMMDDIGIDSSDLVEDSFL
Chain of platelet derived growth factor-receptor B (PDGFRB) (P09619 33-1106): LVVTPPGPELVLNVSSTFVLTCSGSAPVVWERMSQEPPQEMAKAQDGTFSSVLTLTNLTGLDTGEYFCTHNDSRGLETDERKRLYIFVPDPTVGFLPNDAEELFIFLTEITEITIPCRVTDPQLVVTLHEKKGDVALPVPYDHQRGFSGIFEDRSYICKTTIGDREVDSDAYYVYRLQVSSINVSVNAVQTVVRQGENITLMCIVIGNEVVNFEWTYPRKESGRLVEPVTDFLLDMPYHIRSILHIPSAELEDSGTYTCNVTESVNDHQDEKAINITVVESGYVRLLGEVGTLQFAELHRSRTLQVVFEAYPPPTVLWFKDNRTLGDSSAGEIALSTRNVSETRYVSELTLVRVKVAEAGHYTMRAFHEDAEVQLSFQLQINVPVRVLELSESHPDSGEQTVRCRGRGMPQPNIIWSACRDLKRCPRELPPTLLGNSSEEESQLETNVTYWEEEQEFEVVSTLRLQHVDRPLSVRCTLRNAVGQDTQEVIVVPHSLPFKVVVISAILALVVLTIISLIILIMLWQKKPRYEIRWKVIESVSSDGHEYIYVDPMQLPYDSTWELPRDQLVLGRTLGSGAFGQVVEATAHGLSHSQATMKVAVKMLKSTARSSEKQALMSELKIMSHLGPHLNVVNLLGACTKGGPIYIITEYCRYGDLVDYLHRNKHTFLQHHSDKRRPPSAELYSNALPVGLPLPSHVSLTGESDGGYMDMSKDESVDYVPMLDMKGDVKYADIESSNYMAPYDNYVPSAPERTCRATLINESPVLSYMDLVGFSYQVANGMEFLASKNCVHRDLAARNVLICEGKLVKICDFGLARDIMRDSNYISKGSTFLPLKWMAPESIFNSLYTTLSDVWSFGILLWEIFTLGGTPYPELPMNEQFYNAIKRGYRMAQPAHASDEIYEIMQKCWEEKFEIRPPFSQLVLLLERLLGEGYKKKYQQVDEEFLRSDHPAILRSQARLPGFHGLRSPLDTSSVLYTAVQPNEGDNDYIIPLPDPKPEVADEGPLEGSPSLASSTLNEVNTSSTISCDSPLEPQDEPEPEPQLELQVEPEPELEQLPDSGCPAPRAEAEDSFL

In the case of MOD000001, the results for the IC50 (in test [1]; in test [2]; at KIT) were 218 nM, 1400 nM and 2 nM, respectively.

(Values after paper PMC11101940, “A highly selective KIT inhibitor MOD000001 suppresses IgE-mediated mast cell activation” (The Journal of Allergy and Clinical Immunology: Global, 2024).)
